What all share (assay): MIC, broth microdilution
The test system of test [1] is S. pneumoniae. The format is cell-based, Streptococcus pneumoniae. The protocol:
(§1) MICs were determined by the microdilution method according to the Clinical and Laboratory Standards Institute guidelines. […] Finally, the 96-well plates were incubated at 37 °C for 16–20 h to observe and record the results. […] The assay for MICs was replicated at least three times.

Test [2] relates to S. pyogenes. The test is classed as cell-based, Streptococcus pyogenes. The following applies: S. pyogenes 12-206, c-ermTR. The protocol: as §1
Test [3] relates to S. aureus. The test is classed as cell-based, Staphylococcus aureus. How it is done: as §1
Test [4] deals with H. influenzae. The format is cell-based, Haemophilus influenzae. The protocol:
as §1

The mark [5] stands for this setting: Streptococcus pneumoniae, ATCC49619, S. pneumoniae ATCC49619, Ery-S, read-out: MIC.
Setting [6] is: Streptococcus pneumoniae, S. pneumoniae 07P390, c-ermB, read-out: MIC.
Where [7] appears, read: Streptococcus pneumoniae, S. pneumoniae PU09, mef, read-out: MIC.
The mark [8] stands for this setting: Streptococcus pyogenes, read-out: MIC.
The mark [9] stands for this setting: Staphylococcus aureus, S. aureus 15B196, c-ermB, read-out: MIC.
Where [10] appears, read: Staphylococcus aureus, S. aureus PU32, i-ermA, read-out: MIC.
[11] abbreviates: Haemophilus influenzae, ATCC49247, H. influenzae ATCC49247, Azi-S, read-out: MIC.

Values after ≈ are worked out from the molar mass of the structure shown. Like-named read-outs stand apart in the source and are kept apart here. Bounds are passed on as bounds.

As for `CC[C@H]1OC(=O)[C@H](C)[C@@H](OC(=O)NCCOCCC#Cc2ccc3c(=O)c(C(=O)O)cn(C4CC4)c3c2)[C@H](C)[C@@H](O[C@@H]2O[C@H](C)C[C@H](N(C)C)[C@H]2O)[C@](C)(OC)C[C@@H](C)C(=NOC)[C@H](C)[C@H]2OC(=O)O[C@@]21C` [70c], the MIC in test [1] (S. pneumoniae 07P390, c-ermB) is 0.25 µg/mL (≈ 0.247 µM); in test [1] (S. pneumoniae ATCC49619, Ery-S), at most 0.008 µg/mL; in test [1] (S. pneumoniae PU09, mef) it was 0.06 µg/mL (≈ 0.0593 µM); in test [2], 2 µg/mL (≈ 1.98 µM); in test [3] (S. aureus 15B196, c-ermB), 128 µg/mL (≈ 127 µM); in test [3] (S. aureus PU32, i-ermA), 4 µg/mL (≈ 3.96 µM). Further, the MIC in test [4] (H. influenzae ATCC49247, Azi-S) came out at 32 µg/mL (≈ 31.6 µM).
Regarding `CCC1OC(=O)C(C)C(OC(=O)NCCCCCC#Cc2ccc3c(c2)c(=O)c(C(=O)O)cn3C2CC2)C(C)C(OC2OC(C)CC(N(C)C)C2O)C(C)(OC)CC(C)C(=NOC)C(C)C2OC(=O)OC12C` (stereo not drawn) [57a], the MIC in test [1] (setting [5]) was 0.25 µg/mL (≈ 0.248 µM); in test [1] (setting [6]), 64 µg/mL (≈ 63.4 µM); in test [1] (setting [7]) it was 1 µg/mL (≈ 0.991 µM); in test [2] (setting [8]), 32 µg/mL (≈ 31.7 µM); in test [3] (setting [9]), 128 µg/mL (≈ 127 µM); in test [3] (setting [10]) it was 16 µg/mL (≈ 15.9 µM). The MIC in test [4] (setting [11]) is above 256 µg/mL.
For `CC[C@H]1OC(=O)[C@H](C)[C@@H](OC(=O)NCCNCCC#Cc2ccc3c(=O)c(C(=O)O)cn(C4CC4)c3c2)[C@H](C)[C@@H](O[C@@H]2O[C@H](C)C[C@H](N(C)C)[C@H]2O)[C@](C)(OC)C[C@@H](C)C(=NOC)[C@H](C)[C@H]2OC(=O)O[C@@]21C` [74c], the MIC in test [1] (S. pneumoniae 07P390, c-ermB) amounted to 0.5 µg/mL (≈ 0.495 µM); in test [1] (S. pneumoniae ATCC49619, Ery-S), 0.016 µg/mL (≈ 0.0158 µM); in test [1] (S. pneumoniae PU09, mef), 0.12 µg/mL (≈ 0.119 µM); in test [2] it was 2 µg/mL (≈ 1.98 µM); in test [3] (S. aureus 15B196, c-ermB), 256 µg/mL (≈ 253 µM); in test [3] (S. aureus PU32, i-ermA), 8 µg/mL (≈ 7.92 µM). In addition, in test [4] (H. influenzae ATCC49247, Azi-S), the MIC was 16 µg/mL (≈ 15.8 µM).
Consider `CC[C@H]1OC(=O)[C@H](C)[C@@H](OC(=O)NCCCCCc2ccc3c(c2)c(=O)c(C(N)=O)cn3C2CC2)[C@H](C)[C@@H](O[C@@H]2O[C@H](C)C[C@H](N(C)C)[C@H]2O)[C@](C)(OC)C[C@@H](C)C(=NOC)[C@H](C)[C@H]2OC(=O)O[C@@]21C` [59b], for which the MIC is 64 µg/mL (≈ 65 µM) in test [1] (S. pneumoniae 07P390, c-ermB); 0.25 µg/mL (≈ 0.254 µM) in test [1] (S. pneumoniae ATCC49619, Ery-S); 1 µg/mL (≈ 1.02 µM) in test [1] (S. pneumoniae PU09, mef); 64 µg/mL (≈ 65 µM) in test [2]; above 256 µg/mL in test [3] (S. aureus 15B196, c-ermB); 128 µg/mL (≈ 130 µM) in test [3] (S. aureus PU32, i-ermA). In test [4] (H. influenzae ATCC49247, Azi-S), this compound came in with an MIC above 256 µg/mL.
For the compound `CC[C@H]1OC(=O)[C@H](C)[C@@H](OC(=O)NCCCCC#Cc2ccc3c(c2)c(=O)c(C(=O)O)cn3C2CC2)[C@H](C)[C@@H](O[C@@H]2O[C@H](C)C[C@H](N(C)C)[C@H]2O)[C@](C)(O)C[C@@H](C)CN(C)[C@H](C)[C@H]2OC(=O)O[C@@]21C` [109a], the MIC turned out to be 256 µg/mL (≈ 265 µM) in test [1] (S. pneumoniae 07P390, c-ermB); 1 µg/mL (≈ 1.03 µM) in test [1] (S. pneumoniae ATCC49619, Ery-S); 2 µg/mL (≈ 2.07 µM) in test [1] (S. pneumoniae PU09, mef); 128 µg/mL (≈ 132 µM) in test [2]; 256 µg/mL (≈ 265 µM) in test [3] (S. aureus 15B196, c-ermB); 32 µg/mL (≈ 33.1 µM) in test [3] (S. aureus PU32, i-ermA). This compound also displayed an MIC in test [4] (H. influenzae ATCC49247, Azi-S) of 32 µg/mL (≈ 33.1 µM).
Consider `CC[C@H]1OC(=O)[C@H](C)[C@@H](OC(=O)NCCCCCCCCCCc2ccc3c(c2)c(=O)c(C(N)=O)cn3C2CC2)[C@H](C)[C@@H](O[C@@H]2O[C@H](C)C[C@H](N(C)C)[C@H]2O)[C@](C)(OC)C[C@@H](C)C(=NOC)[C@H](C)[C@H]2OC(=O)O[C@@]21C` [64b], for which the MIC in test [1] (S. pneumoniae 07P390, c-ermB) was 16 µg/mL (≈ 15.2 µM); in test [1] (S. pneumoniae ATCC49619, Ery-S), 4 µg/mL (≈ 3.79 µM); in test [1] (S. pneumoniae PU09, mef), 8 µg/mL (≈ 7.59 µM); in test [2], 16 µg/mL (≈ 15.2 µM); in test [3] (S. aureus 15B196, c-ermB), above 256 µg/mL; in test [3] (S. aureus PU32, i-ermA) it was 64 µg/mL (≈ 60.7 µM). Further, in test [4] (H. influenzae ATCC49247, Azi-S), the MIC is above 256 µg/mL.
In the case of `CC[C@H]1OC(=O)[C@H](C)[C@@H](OC(=O)NCCCCCC#Cc2ccc3c(=O)c(C(=O)O)cn(C4CC4)c3c2)[C@H](C)[C@@H](O[C@@H]2O[C@H](C)C[C@H](N(C)C)[C@H]2O)[C@](C)(OC)C[C@@H](C)C(=O)[C@H](C)[C@H]2OC(=O)O[C@@]21C` [79c], the MIC in test [1] (setting [5]) stood at 0.016 µg/mL (≈ 0.0163 µM); in test [1] (setting [6]) it was 0.12 µg/mL (≈ 0.122 µM); in test [1] (setting [7]), 0.06 µg/mL (≈ 0.0612 µM); in test [2] (setting [8]), 2 µg/mL (≈ 2.04 µM); in test [3] (setting [9]) it was 64 µg/mL (≈ 65.3 µM); in test [3] (setting [10]), 4 µg/mL (≈ 4.08 µM). For the same compound, the MIC in test [4] (setting [11]) is 16 µg/mL (≈ 16.3 µM).
As for `CC[C@H]1OC(=O)[C@H](C)[C@@H](OC(=O)NCCCCCCC#Cc2ccc3c(=O)c(C(=O)O)cn(C4CC4)c3c2)[C@H](C)[C@@H](O[C@@H]2O[C@H](C)C[C@H](N(C)C)[C@H]2O)[C@](C)(O)C[C@@H](C)CN(C)[C@H](C)[C@H]2OC(=O)O[C@@]21C` [111c], the MIC in test [1] (S. pneumoniae 07P390, c-ermB) is 0.5 µg/mL (≈ 0.502 µM); in test [1] (S. pneumoniae ATCC49619, Ery-S) it was at most 0.008 µg/mL; in test [1] (S. pneumoniae PU09, mef), at most 0.008 µg/mL; in test [2], 2 µg/mL (≈ 2.01 µM); in test [3] (S. aureus 15B196, c-ermB), 16 µg/mL (≈ 16.1 µM); in test [3] (S. aureus PU32, i-ermA), 4 µg/mL (≈ 4.02 µM). In test [4] (H. influenzae ATCC49247, Azi-S), this compound came in with an MIC of 8 µg/mL (≈ 8.04 µM).
On to `CC[C@H]1OC(=O)[C@H](C)[C@@H](OC(=O)NCCCCCCCc2ccc3c(c2)c(=O)c(C(N)=O)cn3C2CC2)[C@H](C)[C@@H](O[C@@H]2O[C@H](C)C[C@H](N(C)C)[C@H]2O)[C@](C)(OC)C[C@@H](C)C(=NOC)[C@H](C)[C@H]2OC(=O)O[C@@]21C` [61b], for which the MIC in test [1] (S. pneumoniae 07P390, c-ermB) is 16 µg/mL (≈ 15.8 µM); in test [1] (S. pneumoniae ATCC49619, Ery-S), 1 µg/mL (≈ 0.988 µM); in test [1] (S. pneumoniae PU09, mef), 1 µg/mL (≈ 0.988 µM); in test [2], 16 µg/mL (≈ 15.8 µM); in test [3] (S. aureus 15B196, c-ermB) it was above 256 µg/mL; in test [3] (S. aureus PU32, i-ermA) it was 64 µg/mL (≈ 63.2 µM). Moreover, in test [4] (H. influenzae ATCC49247, Azi-S), the MIC is above 256 µg/mL.
Turning to `CC[C@H]1OC(=O)[C@H](C)[C@@H](OC(=O)NCCCCCC#Cc2ccc3c(c2)c(=O)c(C(=O)O)cn3C2CC2)[C@H](C)[C@@H](O[C@@H]2O[C@H](C)C[C@H](N(C)C)[C@H]2O)[C@](C)(O)C[C@@H](C)CN(C)[C@H](C)[C@H]2OC(=O)O[C@@]21C` [110a], the MIC came out at 256 µg/mL (≈ 261 µM) in test [1] (S. pneumoniae 07P390, c-ermB); 1 µg/mL (≈ 1.02 µM) in test [1] (S. pneumoniae ATCC49619, Ery-S); 2 µg/mL (≈ 2.04 µM) in test [1] (S. pneumoniae PU09, mef); 512 µg/mL (≈ 522 µM) in test [2]; 256 µg/mL (≈ 261 µM) in test [3] (S. aureus 15B196, c-ermB); 16 µg/mL (≈ 16.3 µM) in test [3] (S. aureus PU32, i-ermA). For the same compound, the MIC in test [4] (H. influenzae ATCC49247, Azi-S) came to 32 µg/mL (≈ 32.6 µM).
`CC[C@H]1OC(=O)[C@H](C)[C@@H](OC(=O)NCCCCCC#Cc2ccc3c(=O)c(C(=O)O)cn(C4CC4)c3c2)[C@H](C)[C@@H](O[C@@H]2O[C@H](C)C[C@H](N(C)C)[C@H]2O)[C@](C)(O)C[C@@H](C)CN(C)[C@H](C)[C@H]2OC(=O)O[C@@]21C` [110c]: the MIC in test [1] (S. pneumoniae 07P390, c-ermB) was found to be 1 µg/mL (≈ 1.02 µM); in test [1] (S. pneumoniae ATCC49619, Ery-S), 0.016 µg/mL (≈ 0.0163 µM); in test [1] (S. pneumoniae PU09, mef), 0.06 µg/mL (≈ 0.0611 µM); in test [2], 2 µg/mL (≈ 2.04 µM); in test [3] (S. aureus 15B196, c-ermB), 128 µg/mL (≈ 130 µM); in test [3] (S. aureus PU32, i-ermA) it was 4 µg/mL (≈ 4.08 µM). The same compound yielded an MIC in test [4] (H. influenzae ATCC49247, Azi-S) of 8 µg/mL (≈ 8.15 µM).
With `CC[C@H]1OC(=O)[C@H](C)[C@@H](OC(=O)NCCCCCC#Cc2ccc3c(=O)c(C(=O)O)cn(C4CC4)c3c2)[C@H](C)[C@@H](O[C@@H]2O[C@H](C)C[C@H](N(C)C)[C@H]2O)[C@](C)(OC)C[C@@H](C)C(=O)[C@H](C)[C@H]2NC(=O)O[C@@]21C` [87c], the MIC in test [1] (setting [5]) was at most 0.008 µg/mL; in test [1] (setting [6]), 0.06 µg/mL (≈ 0.0613 µM); in test [1] (setting [7]) it was 0.03 µg/mL (≈ 0.0306 µM); in test [2] (setting [8]), 1 µg/mL (≈ 1.02 µM); in test [3] (setting [9]), 64 µg/mL (≈ 65.4 µM); in test [3] (setting [10]), 1 µg/mL (≈ 1.02 µM). In addition, in test [4] (setting [11]), the MIC was 8 µg/mL (≈ 8.17 µM).

The values above are taken from PMC11239830, “Synthetic macrolides overcoming MLSBK-resistant pathogens” (Cell Discovery, 2024).
